Test results as given in patent US20180340012A1, “METHODS AND CO[…] TO IMPROVING PROPERTIES OF PHARMACOLOGICAL AGENTS TARGETING NERVOUS SYSTEM” (University of Utah Research Foundation, priority 2006, published 2018).
Entries after “also recorded” stand apart in the source; their conditions may differ. Where two headings read alike, the source gives them in different places. Square brackets hold non-standard residues; d marks the D form. Ends that are not written are not given here. Peptide text beside a SMILES is read from it. * marks the point of attachment. Fmoc = O=C(OCC1c2ccccc2-c2ccccc21)*; Palmitoyl = CCCCCCCCCCCCCCCC(=O)*; Cha = N[C@@H](CC1CCCCC1)C(=O)O; AMC = Cc1cc(=O)oc2cc(N*)ccc12; Ahx = NCCCCCC(=O)O; Sar = CNCC(=O)O

Assays:
galanin receptors = settings: truncation of GAL(1-16) fragment; read-out: KD towards galanin receptors; cited from earlier work
6 Hz limbic seizures = assay: 6 Hz limbic (psychomotor) seizure test; type: in vivo, CF-1 mice; settings: for % Protection at 1 hour / % Protection at 2 hours / % Protection at 4 hours / % Protection at 1, 2 and 4 hours (result in words): 4 mg/kg; for % Protection at 1 hour / % Protection at 2 hours / % Protection at 4 hours / ED50 in the 6 Hz model / dose in parentheses in Table 14 (ED50) / % Protection at 1, 2 and 4 hours (result in words): i.p.; for % Protection at 1 hour: model not printed at tables, ED50s of same analogs called 6 Hz model; for dose in parentheses in Table 14 (ED50): not labelled in table
From the text: Mice not displaying limbic seizures were considered protected.

[1] = Toxicity (motor impairment) noted in the SAR screen; type: in vivo, mice; settings: 4 mg/kg, i.p.
From the text: Minimal toxicity will be identified in mice by the rotarod procedure (Dunham and Miya, 1957). When a mouse is placed on a 1-inch knurled rod that rotates at a speed of 6 r.p.m., the animal can maintain its equilibrium for long periods of time. The animal is considered toxic if it falls off this rotating rod three times during a 1-minute period.
SAR studies have been carried out in an effort to better understand structural determinants of its activity following systemic administration. […] Presence of the Lys-palm residue was insufficient to produce any observable anticonvulsant activity.

sound-induced seizures = assay: Frings audiogenic seizure-susceptible mouse model; type: in vivo
Method: The two modified galanin analogs (GAL-BBB1 and GAL-BBB2) were administered i.p. to a group of Frings audiogenic seizure susceptible mice in a dose of 4 mg/kg. At various times after administration (i.e., 15, 30, 60, 120, and 240 min) each mouse was placed into a cylindrical test chamber fitted with an audio transducer and challenged with a high-intensity sound stimulus (110 dB, 11 KHz for 20 sec). Animals not displaying tonic hind-limb extension were considered protected. […] In a subsequent study, anticonvulsant efficacy was quantitated at the time to peak effect (i.e., 1 h) in a dose-response study.
The ability of individual modified analogs to prevent seizures induced by sound in the AGS-susceptible Frings mouse model can be assessed at the time of peak effect (White et al., 1992). For this test, individual mice are placed into a plexiglass cylinder (diameter, 15 cm; height, 18 cm) fitted with an audio transducer (Model AS-ZC; FET Research and Development, Salt Lake City, Utah), and exposed to a sound stimulus of 110 decibels (11 KHz) delivered for 20 seconds. Sound-induced seizures are characterized by wild running followed by loss of righting reflex with forelimb and hindlimb tonic extension. Mice not displaying hindlimb tonic extension are considered protected.
At various times after administration (i.e., 15, 30, 60, 120, and 240 min) each mouse was placed into a cylindrical test chamber fitted with an audio transducer and challenged with a high-intensity sound stimulus (110 dB, 11 KHz for 20 sec).

[2] = system: seizures (6 Hz limbic seizure model); settings: 4 mg/kg, i.p.
hGalR2 = target: T1, hGalR2 (Homo sapiens, UniProt O43603); settings: cited from earlier work
T1 sequence (O43603 1-387): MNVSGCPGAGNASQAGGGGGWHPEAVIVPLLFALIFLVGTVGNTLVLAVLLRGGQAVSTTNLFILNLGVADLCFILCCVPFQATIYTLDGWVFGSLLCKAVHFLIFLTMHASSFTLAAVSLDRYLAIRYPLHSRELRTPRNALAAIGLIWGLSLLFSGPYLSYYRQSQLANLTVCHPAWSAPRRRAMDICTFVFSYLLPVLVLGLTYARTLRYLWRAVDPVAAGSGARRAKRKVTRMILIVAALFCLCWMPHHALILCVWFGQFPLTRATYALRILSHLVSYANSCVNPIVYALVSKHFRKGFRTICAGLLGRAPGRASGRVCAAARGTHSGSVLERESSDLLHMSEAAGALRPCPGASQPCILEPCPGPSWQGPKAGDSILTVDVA

[3] = system: formalin-induced paw licking; assay: Mouse formalin test; type: in vivo; settings: for Active at (flat phase II): mouse formalin assay of inflammatory pain
Method: An injection of 0.5% formalin is made into the planter region of a mouse right hind paw. This elicits a distinct biphasic behavioral profile characterized by the mouse licking the affected paw. Immediately following the injection the mouse licks the paw for about 10 minutes. This is phase 1 (acute) and is followed by a brief latent period where there is little behavioral activity. A more prolonged period of about 20 to 30 minutes of paw licking ensues which constitutes phase 2 (inflammatory).
Prior to the administration of the active peptide, drug or vehicle each mouse undergoes a 15-minute conditioning period in one of several 6″ tall plexiglass observation tubes (4″ diameter) that are placed in front of a mirror. […] One hour after treatment, formalin was injected sub-dermally (20 μl; 27 gauge needle) into the plantar surface of the right hind foot. The bevel of the needle is placed facing down toward the skin surface. Following the injection of the formalin each animal is observed for first 2 minutes of each 5 minute epoch for a total of 45 minutes. The cumulative length of licking for each 2 minute time period was measured. An animal receiving the requisite volume of vehicle was alternated with each mouse given GAL-BBB2, Gal 1-16, or gabapentin. Animals were euthanized following the conclusion of the experiment.
Area under the curve (AUC) determination was made using the GraphPad Prism Version 3.03. Total AUC is calculated for both the test and control groups for both the acute and inflammatory phases. The AUC for individual animals for each phase is also calculated and converted to percentage of total AUC of control. The average percentages and SEM for both the drug treated and control were calculated and tested for significant difference.

hGalR3 = target: T2, hGalR3 (Homo sapiens, UniProt O60755); settings: Table 18; compiled from literature; read-out: Affinity, KD hGalR3; cited from earlier work
T2 sequence (O60755 1-368): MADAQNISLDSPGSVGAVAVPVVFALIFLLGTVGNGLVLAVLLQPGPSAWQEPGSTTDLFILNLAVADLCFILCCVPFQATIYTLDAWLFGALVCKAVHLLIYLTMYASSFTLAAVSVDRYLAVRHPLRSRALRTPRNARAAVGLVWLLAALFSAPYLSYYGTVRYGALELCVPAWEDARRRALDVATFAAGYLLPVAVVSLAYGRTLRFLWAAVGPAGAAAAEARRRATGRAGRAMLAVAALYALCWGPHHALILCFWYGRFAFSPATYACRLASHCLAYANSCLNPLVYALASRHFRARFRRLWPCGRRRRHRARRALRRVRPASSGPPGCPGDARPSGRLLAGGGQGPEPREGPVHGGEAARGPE

[4] = Table 2, reference ligands, same values as Table 18, read-out: affinity toward galanin receptors, GalR2
[5] = Table 18, compiled from literature, read-out: Affinity, KD hGalR2

CC(C)C[C@H](NC(=O)[C@H](CC(C)C)NC(=O)[C@H](Cc1ccc(O)cc1)NC(=O)CNC(=O)[C@H](C)NC(=O)[C@H](CO)NC(=O)[C@H](CC(N)=O)NC(=O)[C@H](CC(C)C)NC(=O)[C@@H](NC(=O)[C@H](Cc1c[nH]c2ccccc12)NC(=O)CN)[C@@H](C)O)C(=O)NCC(=O)N1CCC[C@H]1C(=O)N[C@@H](Cc1c[nH]cn1)C(=O)O [Fragment 1-14]
Kd (galanin receptors): 150 nM

WTLNSAGYLLGPKK(Lys-P)K (not fully specified (C-terminus)) [NAX 1205-1]
% Protection at 1 hour (6 Hz limbic seizures): 50% | % Protection at 2 hours (6 Hz limbic seizures): 50% | % Protection at 4 hours (6 Hz limbic seizures): 0% | ED50 in the 6 Hz model (6 Hz limbic seizures): 5.7 mg/kg | dose in parentheses in Table 14 (ED50) (6 Hz limbic seizures): 5.7 mg/kg

CCCCCCCCCCCCCCCC(=O)NCCCC[C@H](NC(=O)[C@H](CCCCN)NC(=O)[C@H](CCCCN)NC(=O)[C@H](CCCCN)NC(=O)[C@H](CCCCN)NC(=O)[C@H](CC(C)C)NC(=O)[C@H](CC(C)C)NC(=O)[C@H](Cc1ccc(O)cc1)NC(=O)CNC(=O)[C@H](C)NC(=O)[C@H](CO)NC(=O)[C@H](CC(N)=O)NC(=O)[C@H](CC(C)C)NC(=O)[C@@H](NC(=O)[C@H](Cc1c[nH]c2ccccc12)NC(=O)CNC)[C@@H](C)O)C(=O)N[C@@H](CCCCN)C(N)=O [NAX 1205-4] (H-[Sar]WTLNSAGYLLKKKKK(Palmitoyl)K-NH2)
toxicity (motor impairment) [1]: toxic

CC(C)C[C@H](NC(=O)[C@H](CC(C)C)NC(=O)[C@H](Cc1ccc(O)cc1)NC(=O)CNC(=O)[C@H](C)NC(=O)[C@H](CO)NC(=O)[C@H](CC(N)=O)NC(=O)[C@H](CC(C)C)NC(=O)[C@@H](NC(=O)[C@H](Cc1c[nH]c2ccccc12)NC(=O)CN)[C@@H](C)O)C(=O)NCC(=O)O [Fragment 1-12]
Kd (galanin receptors): 3000 nM

Sar-Trp-Thr-Leu-Asn-Ser-Ala-Gly-Tyr-Leu-Leu-Gly-Pro-His-(Lys-palm)-Tle-NH2 [GAL-BBB1]
anticonvulsant activity (sound-induced seizures; 4 mg/kg i.p., 15-240 min, also higher dose of 12 mg/kg): not active at any time point tested

WAGGDFSGE [DSIP, reference compound]
activity against 6 Hz (22 mA) limbic seizures (6 Hz limbic seizures; administered directly into the ventricular space, 22 mA): effective | % Protection at 30 min [2]: 0%

(Sar)WTLNSAGYLLGPHA(Lys-P) [306-5]
% Protection at 1, 2 and 4 hours (result in words) (6 Hz limbic seizures): Not active

Cc1cc(=O)oc2cc(NC(=O)[C@H](CCCCN)NC(=O)[C@H](CC3CCCCC3)NC(=O)OCC3c4ccccc4-c4ccccc43)ccc12 [Galnon] (Fmoc-[Cha]-Lys-{AMC})
Kd (hGalR2; [4]): 24000 nM | Kd (hGalR2; [5]): 24000 nM

DPhe-Cys-Phe-DTrp-Lys-Thr-Cys-Thr-NH2 [DPhe-Cys-Phe-DTrp-Lys-Thr-Cys-Thr-N2, reference compound]
% Protection at 30 min [2]: 50%

GWTLNSAGYLLGPHAV [Gal(1-16), reference compound]
anticonvulsant activity (sound-induced seizures; 20 mg/kg i.p.): inactive | % Protection at 1, 2 and 4 hours (result in words) (6 Hz limbic seizures): Not active | activity in formalin test ([3]; 20 mg/kg i.p.): inactive | Kd (hGalR2; [4]): 8.3 nM | Kd (hGalR2; [5]): 8.3 nM | Kd (hGalR3): 6.5 nM

GWTLNSAGYL [Fragment 1-10]
Kd (galanin receptors): 25000 nM

Lys-Lys-Lys(palm)-Lys-Ahx-DPhe-Cys-Phe-DTrp-Lys-Thr-Cys-Thr-NH2
% Protection at 30 min [2]: 100%

GWTLNSAGY [Fragment 1-9]
Kd (galanin receptors): 100000 nM

(Sar)WTLNSAGYKK(Lys-P)K [NAX 306-3]
Active at (flat phase II) [3]: 2.7 mg/kg (“flat phase II”)

CC[C@@H](C(N)=O)N1CCCC1=O [Levetiracetam, reference compound]
maximum protection against 6 Hz limbic seizures (6 Hz limbic seizures; 6 Hz (44 mA), 1000 mg/kg, alone): ≤ 50%

(Sar)WTLNSAGY(Ahx)KK(Lys-P)K [NAX 306-4]
% Protection at 1 hour (6 Hz limbic seizures): 50% | % Protection at 2 hours (6 Hz limbic seizures): 0% | % Protection at 4 hours (6 Hz limbic seizures): 0% | ED50 in the 6 Hz model (6 Hz limbic seizures): 2.95 mg/kg | dose in parentheses in Table 14 (ED50) (6 Hz limbic seizures): 2.95 mg/kg | activity in second response phase of inflammatory pain assay ([3]; 2.95 mg/kg): very active | Active at (flat phase II) [3]: 2.9 mg/kg (“flat phase II”)

(Sar)WTLNSAGYLLGPRR(Lys-P)R [NAX 1205-3]
% Protection at 1 hour (6 Hz limbic seizures): 100% | % Protection at 2 hours (6 Hz limbic seizures): 75% | % Protection at 4 hours (6 Hz limbic seizures): 0%

CNCC(=O)N[C@@H](Cc1c[nH]c2ccccc12)C(=O)N[C@H](C(=O)N[C@@H](CC(C)C)C(=O)N[C@@H](CC(N)=O)C(=O)N[C@@H](CO)C(=O)N[C@@H](C)C(=O)NCC(=O)N[C@@H](Cc1ccc(O)cc1)C(=O)N[C@@H](CC(C)C)C(=O)N[C@@H](CC(C)C)C(=O)NCC(=O)N1CCC[C@H]1C(=O)N[C@@H](CCCCN)C(=O)N[C@@H](CCCCN)C(=O)N[C@@H](CCCCN)C(=O)N[C@@H](CCCCN)C(N)=O)[C@@H](C)O [NAX 1105-2]
% Protection at 1 hour (6 Hz limbic seizures): 30% | % Protection at 2 hours (6 Hz limbic seizures): 0% | % Protection at 4 hours (6 Hz limbic seizures): 0% | ED50 in the 6 Hz model (6 Hz limbic seizures): 3.8 mg/kg | dose in parentheses in Table 14 (ED50) (6 Hz limbic seizures): 3.7 mg/kg | toxicity (motor impairment) [1]: toxicity (motor impairment); also recorded: toxic

[Ahx]GGWAGGDFSGE
% Protection at 30 min [2]: 50% | % Protection after 2 hours ([2]; 2 hours): (100% after

(Sar)WTLNSAGYLLGPDKDK(Lys-P)DK (XWTLNSAGYLLGPXXXX; N-terminal Sar; C-terminal (Lys-P)DK; MOD_RES 1 Xaa = MeGly; VARIANT 14, 15, 17 Xaa = D-Lys; MOD_RES 16 Xaa = Lys-palm) [NAX 1205-2]
% Protection at 1 hour (6 Hz limbic seizures): 100% | % Protection at 2 hours (6 Hz limbic seizures): 50% | % Protection at 4 hours (6 Hz limbic seizures): 75% | ED50 in the 6 Hz model (6 Hz limbic seizures): 1.2 mg/kg | dose in parentheses in Table 14 (ED50) (6 Hz limbic seizures): 1.2 mg/kg
